Data from US20250090562A1, “METHODS, COMPOSITIONS AND USES RELATED TO THE TREATMENT AND PREVENTION OF LEIGH’S SYNDROME” (Stealth BioTherapeutics Inc., priority 2023, published 2025).
“Also recorded” adds a separate entry of the source.

How the values were obtained:
[1] = tested on: Healthy (GM08402) fibroblasts; experiment: RSL3 cytoprotection assay, healthy fibroblasts; assay type: cell-based, human; settings: for relative anti-ferroptosis properties (comparison between test articles): 1 μM RSL3, 10-1000 nM compound, 4 h
Procedure: (§1) Patient fibroblasts were acquired from Coriell Institute for Medical Research (Camden, NJ, USA). GM03672 is an untransformed fibroblast cell line from a Leigh syndrome patient carrying an unknown mutation. GM08402 is an untransformed fibroblast from an apparently healthy individual. Cells were cultured at 37° C. at 5% CO2 in Eagle's Minimum Essential Medium (MEM, Corning), which was supplemented with Earle's salts and non-essential amino acids, 15% qualified fetal bovine serum, and 1% penicillin/streptomycin ([…]) to yield “Complete MEM.”
(§2) To initiate the RSL3 cytoprotection experiment, Healthy (GM08402) and Leigh syndrome (GM03672) fibroblasts were resuspended in Complete MEM. Cells were seeded at 10,000 cells per well in a clear, tissue cultured-treated, 96-well plate and incubated at 37° C. overnight. Following the incubation, supernatant was manually aspirated, taking care not to disrupt cells. […]. Luminescence units were quantified by GEN5 software on a BioTek SYNERGY neo2 plate reader (LUM filter).
(§3) RSL3 is an inhibitor of the enzyme glutathione peroxidase 4 (GPX4), which decreases lipid peroxides. RSL3 inhibition of GPX4 induces ferroptosis through iron-dependent accumulation of lipid ROS. In this assay, Healthy or Leigh fibroblasts were treated for 4 hours with RSL3 to induce ferroptosis or left untreated. Endogenous ATP levels were measured as an indicator of cellular viability using a commercially available kit (CellTiter-Glo® 2.0 Cell Viability Assay (Promega)).
(§4) […]. […] Briefly, ferroptosis was induced with 1 μM RSL3 in healthy fibroblast cells and 375 nM RSL3 in fibroblasts from a patient with Leigh syndrome.
(§5) A preliminary experiment was performed to determine the effect of RSL3 injury on the fibroblasts of a healthy individual (cell line: GM08402) and the fibroblasts of a patient diagnosed with Leigh syndrome (cell line: GM03672).

[2] = tested on: Leigh syndrome (GM03672) fibroblasts; experiment: RSL3 cytoprotection assay, Leigh fibroblasts; assay type: cell-based, human; settings: for relative anti-ferroptosis properties (comparison between test articles): 375 nM RSL3, 10-1000 nM compound, 4 h
Procedure: as §1, §2, §3, §4, §5

[3] = tested on: Leigh fibroblasts (GM03672); experiment: Mitochondrial membrane potential (TMRM flow cytometry) in RSL3-treated Leigh fibroblasts; assay type: cell-based, human; settings: 1 μM RSL3 alone, 4 h
Procedure: Leigh fibroblasts (GM03672) were seeded in a 24-well, tissue culture-treated plate in complete MEM (MEM+15% FBS+1% penicillin/streptomycin) at a density of 1×10^5 cells per 500 μL and incubated overnight at 37° C. at 5% CO2. Cells were treated for 4 hours at 37° C. with either 1 μM RSL3, 1 μM RSL3 with 1 μM Compound 3 or media for untreated cells. Following the incubation, supernatant was removed and cells were treated with 0.25% trypsin for 5 min at 37° C. Trypsin was neutralized with an equal part MEM. Cells were dislodged with gentle pipetting and pelleted at 300×g for 5 minutes. Pellets were resuspended in 500 μL Fluobrite DMEM and cells were transferred to a 96-well, v-bottom plate. Cells were stained with 20 nM MitoTracker Green and 100 nM tetramethylrhodamine methyl ester (TMRM) Samples were incubated for 25 minutes at 37° C. Each well was mixed immediately prior to analysis to resuspend settled cells. Fluorescence intensity was measured on the BD Accuri C6 Plus Flow Cytometer. A minimum of 10,000 events per sample was collected. Data analysis was performed using FloJo vs. 10. Gating was performed by establishing an initial forward scatter vs. side scatter gate. MitoTracker Green positive, TMRM positive cells were identified through subsequent gating. Median fluorescence intensity (MFI) of TMRM fluorescence was determined. Using GraphPad Prism 10, statistical significance between groups was determined by One-way ANOVA. A p-value of less than 0.05 was considered significant. Results are presented graphically in FIG. 20.

[4] = tested on: Healthy (GM08402) fibroblasts; experiment: Erastin cytoprotection assay, healthy fibroblasts; assay type: cell-based, human; settings: 2 μM erastin, 250 μM FAC, 50 μM AA, 10-1000 nM compound, 24 h
Procedure: (§6) Briefly, Healthy (GM08402) or Leigh (GM03672) fibroblasts were resuspended in assay medium, seeded at 10,000 cells per well in a clear, tissue cultured-treated, 96-well plate, and incubated at 37° C. overnight. Following the incubation, supernatant was manually aspirated from wells, taking care not to disrupt cells. Fibroblasts were co-treated in a final volume of 100 μL with 2 μM erastin (Millipore Corp., Cat #), 250 μM ferric ammonium citrate (FAC), 50 μM ascorbic acid (AA), and a titration of one of each of Compounds 1 to 4 or Vatiquinone ranging from 10 to 1000 nM. Following another 24-hour incubation at 37° C., cell viability was measured using the CellTiter-Glo Luminescent Cell Viability Kit (ProMega) per Manufacturer's instructions. Luminescence units were quantified by GEN5 software on a BioTek SYNERGY neo2 plate reader (LUM filter).
(§7) Briefly, erastin, like RSL3, is known to induce ferroptosis. […] Erastin was incubated with cell fibroblasts for 24 hours to induce ferroptosis. Cells were co-treated with each of Compounds 1 to 4, or Vatiquinone as the test articles. Test articles were administered at a range of concentrations to derive a curve. Cell viability was determined using a commercially available kit that measures ATP production. […] An increase in cell viability as determined by the assay is considered to be protective against ferroptosis.

15-lipoxygenase (15-LO) = experiment: 15(S)-HETE ELISA following RSL3 treatment, Leigh fibroblasts; assay type: cell-based, human; settings: 700 nM RSL3, 1 μM compound, 24 h
Procedure: Samples for the 15(S)-HETE ELISA were generated by the RSL3 cytoprotection assay described above. Healthy or Leigh fibroblasts were resuspended in assay medium, seeded at 200,000 cells per well in a clear, tissue culture-treated, 24-well plate. Cells were incubated at 37° C. for 24 hours. Supernatant was aspirated from each well following the incubation.
Fibroblasts from both a healthy individual and a patient diagnosed with Leigh syndrome were examined (but not all compounds were examined in each cell type). Activation of ferroptosis has been implicated as a driver of epilepsy, which is commonly associated with Leigh syndrome. […] Kahn-Kirby et al. PLOS One. […] As a key regulator of ferroptosis, 15-LO serves as a rational therapeutic target in Leigh syndrome.

[5] = tested on: rotenone-inhibited Complex I; experiment: Complex I-bypass assay ((CI)-bypass assay), high-resolution respirometry O2 consumption; assay type: cell-based, human; settings: Leigh (GM03672) fibroblasts, 0.5 μM rotenone; for Complex I by-pass activity (restoration of oxygen consumption rate): titrations 125 nM to 8 μM
Procedure: All high-resolution respirometry experiments were conducted using the Oroboros O2k-Fluorespirometer (Oroboros, Innsbruck, Austria). The Oroboros O2k-Fluorespirometer was calibrated daily using the air calibration protocol on DatLab 7.4 (Oroboros, Innsbruck, Austria). Prior to each experiment requiring the fluorescence module, the AmpR calibration protocol from DatLab 7.4 was used to calibrate the fluorescence signal. Initial data analysis, including setting of marks, was performed using DatLab 7.4.
Complex I-bypass activity was assessed using HRR to measure O2 consumption. Briefly, Leigh (GM03672) fibroblasts were harvested with trypsin, pelleted at 300×g centrifugation, and resuspended in prewarmed, complete MEM. Cells were added to each chamber via buffer replacement at a concentration of 1-2 million per mL. The chambers were closed to initiate measurement of O2 consumption. The slope negative signal, which is a derivative of O2 consumption, was allowed to stabilize over the course of several minutes. Using a Hamilton syringe to allow for continuous measurement of O2 consumption, glutamate (10 mM final concentration) and malate (0.1 mM final concentration) were added to the closed chamber through the central capillary of the stopper. The slope negative signal was stabilized for several minutes, and rotenone was added at a final concentration of 0.5 μM. One of Compounds 1 to 4 or Vatiquinone was added at increasing concentrations, allowing for several minutes of stabilization of the slope negative signal between titrations. Marks were set at signal plateaus in between titrations. Values were exported and analyzed using GraphPad Prism 9. […] Responsiveness of cells was confirmed with idebenone.
Statistical analysis was performed using GraphPad Prism 9. Complex I-bypass data were fit using nonlinear sigmoidal 4P fit. RET Assay data were analyzed by 2-way ANOVA using a p-value of 0.05.
The Complex 1-bypass assay ((CI)-bypass Assay) evaluates the capacity of compounds to donate electrons into the electron transport chain (ETC) when Complex I is impaired or otherwise deficient. Normally, electrons feed into the ETC through Complex I. In instances where Complex I is impaired, electrons must enter the ETC downstream of Complex I for oxidative phosphorylation (OXPHOS) to occur. Complex I is composed of 46 subunits, encoded by mitochondrial and nuclear genes. Due to its large size, Complex I mutations are a common cause of ETC dysfunction in mitochondrial diseases. Indeed, mutations in the genes that encode subunits for Complex I are important causes of Leigh and Leigh-like syndrome.
Using this assay, the ability of Compounds 1 to 4 and Vatiquinone to bypass rotenone-inhibited Complex I was determined. Rotenone is a widely used Complex I inhibitor and blocks the transfer of electrons from the iron-sulfur complexes on Complex I to ubiquinone. Thus, when rotenone is introduced to cells underdoing routine respiration, a decrease in oxygen consumption is observed, which is indicative of disrupted OXPHOS. The ability of Compounds 1 to 4 and Vatiquinone to “bypass” Complex I and restore OXPHOS is measured by an increase in oxygen consumption rate following addition of the compound to the chamber.
In executing this assay, in each instance, fibroblasts are added to each chamber of the Oroboros Oxygraph-2K (the “O2k”). The O2k generates two traces: 1) total oxygen consumption over time, 2) the rate of oxygen consumption over time (slope negative). Baseline respiration is established for several minutes by allowing the slope negative to stabilize. Rotenone is introduced to each chamber at a final concentration of 0.5 μM. The addition of rotenone is expected to cause a marked reduction of OXPHOS as measured by a decreased rate of oxygen consumption. Then the test article (i.e., in this case one of Compounds 1 to 4 or Vatiquinone) is added to the chamber. […]

[6] = tested on: Leigh (GM03672) fibroblasts; experiment: Erastin cytoprotection assay, Leigh fibroblasts; assay type: cell-based, human; settings: 2 μM erastin, 250 μM FAC, 50 μM AA, 10-1000 nM compound, 24 h
Procedure: as §6, §7

[7] = patients with pontocerebellar hypoplasia type 6; cited from earlier work

SMILES: COC(=O)c1ccc([C@H]2c3[nH]c4ccccc4c3C[C@H](C(=O)OC)N2C(=O)CCl)cc1 [RSL3, (1S,3R)-Methyl 2-(2-chloroacetyl)-2,3,4,9-tetrahydro-1-[4-(methoxycarbonyl)phenyl]-1H-pyrido[3,4-b]indole-3-carboxylate, reference compound]
- RSL3 concentration sufficient for 25-30% killing of cells ([1]; healthy fibroblasts GM08402, 4 h): 1 µM
- RSL3 concentration sufficient for 25-30% killing of cells ([2]; Leigh fibroblasts GM03672, 4 h): 700 nM
- mitochondrial membrane potential (TMRM MFI) [3]: significant reduction in mitochondrial membrane potential

SMILES: COC1=C(OC)C(=O)C(CCCCCCCCCC(F)(F)F)=C(C)C1=O [Compound 1]
- relative anti-ferroptosis properties (comparison between test articles) [1]: roughly equivalent in their anti-ferroptosis properties
- relative protective effect against erastin induced ferroptosis (cell viability, ATP) [4]: about equally protective
- relative 15-LO inhibition (comparison between test articles) (15-lipoxygenase (15-LO)): superior to Compounds 2, 3 and 4
- relative anti-ferroptosis properties (comparison between test articles) [2]: roughly equivalent in their anti-ferroptosis properties
- EC50 ([5]; oxygen consumption rate, read-out: EC50 value, Complex I by-pass activity): ~13.7 µM
- Complex I by-pass activity (restoration of oxygen consumption rate) [5]: restored oxygen consumption rate in a dose-dependent manner
- relative protective effect against erastin induced ferroptosis (cell viability, ATP) [6]: about equally protective

SMILES: CC(C)=CCC/C(C)=C/CC/C(C)=C/CC[C@@](C)(O)CCC1=C(C)C(=O)C(C)=C(C)C1=O [Vatiquinone, reference compound]
- relative anti-ferroptosis properties (comparison between test articles) [1]: roughly equivalent in their anti-ferroptosis properties
- relative protective effect against erastin induced ferroptosis (cell viability, ATP) [4]: about equally protective
- relative anti-ferroptosis properties (comparison between test articles) [2]: roughly equivalent in their anti-ferroptosis properties
- effect on seizures [7]: reduce the incidence of seizures; also recorded: decrease seizure frequency and morbidity
- Complex I by-pass activity (restoration of oxygen consumption rate) [5]: no CI-bypass activity; also recorded: inactive
- relative protective effect against erastin induced ferroptosis (cell viability, ATP) [6]: superior in its protective effect as compared with Compounds 1 and 4
